Literature values as cited in US4046910A, “Dosage schedule” (The Upjohn Company, priority 1976, dated 1977).
Structures can show the parent of a compound that is named as a salt.

System: allergic manifestations caused by antigen-antibody interaction
Conditions: tris(hydroxymethyl)aminomethane salts; U.S. Ser. No. 233,772 and 261,524; cited from earlier work

SMILES	ability to prophylactically protect against allergic manifestations
Cc1c2[nH]c(C(=O)O)cc(=O)c2cc2c(=O)cc(C(=O)O)[nH]c12 [1,4,6,9-tetrahydro-10-methyl-4,6-dioxopyrido[3,2-g]quinoline-2,8-dicarboxylic acid]	have this ability to prophylactically protect against allergic manifestations
O=C(O)c1cc(=O)c2cc(-c3ccc4[nH]c(C(=O)O)cc(=O)c4c3)ccc2[nH]1 [tris(hydroxymethyl)aminomethane salt of 1,1',4,4'-tetrahydro-4,4'-dioxo[6,6'-biquinoline]-2,2'-dicarboxylic acid]	have this ability to prophylactically protect against allergic manifestations
